Experimental data published in article PMC9502776, “Assessment of the Effects of Chitosan, Chitooligosaccharides and Their Derivatives on Lemna minor” (Molecules, 2022).
In brackets after ≈: the same amount, converted by molar mass. Where a name gives a salt, the structure may show the parent alone.

What was measured:
Lemna minor = Lemna minor growth inhibition assay (OECD Test No. 221); format: in vivo; settings: for aquatic toxicity category according to U.S. EPA: based on the calculated EC50 values against Lemna minor
Procedure: Four types of polymers were tested, namely low- (ChiS), medium- (ChiM) and high- (ChiL) molecular-weight chitosan and chitosan with a degree of deacetylation of approximately 50% (Chi50). The chitosan samples were tested in three concentrations (50 mg/L, 500 mg/L and 5000 mg/L) and were obtained by dissolving the polymers in 0.3% acetic acid, followed by dilution with culture medium in a 1:2 ratio.
Four types of chitooligosaccharides were tested: D-glucosamine hydrochloride (G), N-acetyl-D-glucosamine (NAG or A), chitobiose dihydrochloride (2G), and carboxymethyl chitosan (CMChi). Three chitooligosaccharides (G, NAG, 2G) were tested in three concentrations: 5 mg/L, 50 mg/L and 250 mg/L, being dissolved directly into L. minor culture medium. CMChi was tested in four concentrations (50 mg/L, 250 mg/L, 500 mg/L and 5000 mg/L) and the solutions were prepared by dissolving the polymer directly in L. minor culture medium.
Lemna minor, the common duckweed, was used as a test organism for the assessment of growth response of the tested chitosan samples and chitooligosaccharides through a growth inhibition assay. Standard conditions as described in OECD guideline were maintained during both L. minor culture and growth inhibition assay.
The effects of the chitosan samples and the chitooligosaccharides were tested using a number of 10 fronds per test vessel, with an exposure period of 7 days. In the same conditions, two controls were tested: a negative control (C−), represented by culture medium, and a positive control (C+), represented by 0.5% zinc chloride. All samples and controls were tested in triplicate.
The endpoints of the growth inhibition test were represented by number of fronds, which was used for the plotting of dose–response curves and the calculation of half maximal effective concentration (EC50). The tested samples were classified into aquatic ecotoxicity categories according to U.S. EPA [47] based on the calculated EC50 values: very highly toxic (<0.1 mg/L), highly toxic (>0.1–1 mg/L), moderately toxic (>1–10 mg/L), slightly toxic (>10–100 mg/L) and practically non-toxic (>100 mg/L).
PAST software was used for the statistical analysis of data, with Quest Graph™ EC50 Calculator [65] being used for the calculation of EC50 values. The Shapiro–Wilk W test was used for assessing the normality of the data, with the distribution analysis being followed by an ANOVA analysis. The normally distributed data were analyzed with parametric tests, the homogeneity of variance among treatments was determined through Levene’s test, with Tuckey’s post hoc test being used for the analysis of variances. The non-normally distributed data were analyzed with the Kruskal–Wallis test, variances being further analyzed using Dunn’s post hoc test. The Pearson linear r correlation test was used for all correlation analysis. The differences were considered significant for p values < 0.05.

Lemna gibba = test system: Lemna gibba; design: method as in PMID 16666961; settings: D-glucosamine 50 mM, ref [49]; cited from earlier work
Lemna trisulca = test system: Lemna trisulca; design: method as in PMID 17074410; settings: ref [48], cited from earlier work
[1] = number of fronds, exposure period of 7 days

| Compound | EC50 against Lemna minor (Lemna minor; [1]) [mg/L] | aquatic toxicity category according to U.S. EPA (Lemna minor) | further results |
| --- | --- | --- | --- |
| Cl.N[C@H]1[C@H](O[C@H]2[C@H](O)[C@@H](N)C(O)O[C@@H]2CO)O[C@H](CO)[C@@H](O)[C@@H]1O (some centres unmarked) [2G, chitobiose dihydrochloride] | 266.36 | – | – |
| N[C@H]1C(O)O[C@H](CO)[C@@H](O)[C@@H]1O (stereo partly drawn) [D, D-glucosamine] | – | – | inhibition of the respiration rate (Lemna gibba): 30%; level of zeaxanthin and antheraxanthin, times higher than the control (Lemna trisulca; Lemna trisulca): approximately 30 times; inhibition of violaxanthin synthesis from zeaxanthin and antheraxanthin (Lemna trisulca; even at a concentration of 0.01%): induced the inhibition |
| N[C@H]1C(O)O[C@H](CO)[C@@H](O)[C@@H]1O (stereo partly drawn) [G, D-glucosamine hydrochloride] | – | slightly toxic (slightly toxic (>10–100 mg/L)) | EC50 (Lemna minor; Lemna minor, 168 h, number of fronds, exposure period of 7 days, read-out: EC50 against Lemna minor): 11.6 mg/L |
| CC(=O)N[C@@H]1[C@@H](O)[C@H](O)[C@@H](CO)O[C@@H]1O [A, N-acetyl-D-glucosamine] | 678.22 (≈ 3.07 mM) | practically non-toxic (practically non-toxic (>100 mg/L)) | – |
